Source: US20110237644A1, “UBIQUITIN SPECIFIC PROTEASES RESPONSIBLE FOR MCL-1 STABILITY AND USES THEREOF” (Les Laboratoires Servier, priority 2008, published 2011)

Assays:
[1] = system: HeLa cells; experiment: Flow cytometry, subG1-phase cells (apoptosis); assay type: cell-based, human; details: ABT-737 (3 μM) in Luc siRNA-treated HeLa cells
Description: FIG. 13: Flow cytometry of HeLa cancer cell transfected with luc, mcl-1, USP46v1, USP46v4 or USP46 pool siRNA. Cell cycle was determined 72 h after siRNA transfection and 18 h after ABT-737 treatment (3 μM).
FIG. 14: ABT-737-induced subG1 transition in HeLa cells determined 72 h after siRNA transfection and 24 h after ABT-737 treatment. The percentage of cells in the subG1 (<2N) are means+/−SD of duplicate values (A). Mcl-1 endogenous level was also determined in the presence of siRNA targeting either luciferase, Mcl-1 or USP46. Anti-Stat3 antibody was used as loading control (B).
All cell lines used were maintained in their respective medium. All culture media were supplemented with 100 units/ml penicillin and 0.1 mg/ml streptomycin, and cell lines were incubated at 37° C. in a humidified atmosphere containing 5% CO2. For siRNA transfection, siRNA (40 pmol, 72 nM final) were complexed with 2 μl of Oligofectamine (Invitrogen) in Opti-MEM (Invitrogen) and added to 24-well plates prior to cell seeding. In all conditions, Opti-MEM was replaced with appropriate medium 5 hours after transfection. […]
To confirm the effect of USP46 siRNA on the sensitization of cells to ABT-737-induced apoptosis in HeLa cells, the number of subG1-phase cells is quantified which reflect mainly apoptosis. […]

[2] = target: Mcl-1 (Homo sapiens, UniProt Q07820); details: cited from earlier work
[3] = target: T1, A1 (Homo sapiens, UniProt Q16548); details: cited from earlier work
T1 sequence (Q16548 1-175): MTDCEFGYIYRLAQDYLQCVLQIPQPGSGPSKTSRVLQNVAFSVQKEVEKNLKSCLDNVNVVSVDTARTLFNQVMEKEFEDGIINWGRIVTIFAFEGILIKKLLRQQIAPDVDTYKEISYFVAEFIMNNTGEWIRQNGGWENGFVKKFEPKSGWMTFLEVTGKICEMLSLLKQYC

[4] = system: Mcl-1 in HCT116 cells; experiment: USP siRNA screening on Mcl-1 half-life with cycloheximide, Western blot; assay type: cell-based, human; details: confirmation experiment
Description: FIG. 1 (FIGS. 1.1, 1.2, 1.3): Schematic representation of Mcl-1 modulation following USP silencing at t=0, 30 min or 1 h of cycloheximide treatment in HCT116 cells. Mcl-1 increase and decrease are respectively presented in blue and green and siRNA toxicity is presented in grey. Absence of color corresponds to absence of any effect. Selected USP for confirmation experiments are highlighted in green (USP5, USP13, USP19, USP21, USP22, USP26, USP28, USP38, USP42 and USP46). SiRNA designed to target pairs of USP are indicated on the right of the table.
For the screening, the indicated amounts of siRNA (40 pmol, 72 nM final) were complexed with 2 μl of Oligofectamine (Invitrogen) in Opti-MEM (Invitrogen) and added to 24-well plates prior to cell seeding. 150 000 HCT116 cells were next plated. Opti-MEM was replaced with appropriate medium 5 hours after transfection. After 72 h of transfection and before harvesting, cells were treated or not with cycloheximide (30 μg/ml) for 30 min or 1 hour or treated with MG132 (30 μM) for 90 min.
Cells were washed once in chilled PBS and harvested by trypsination. Floating and trypsinized cells were pooled and collected by centrifugation. […] Proteins were quantitated using bicinchoninic acid (Sigma-Aldrich) according to manufacturer's instructions. […] Signal was detected using ECL reagent (Amersham) following manufacturer's instructions. […]

Sequence of Mcl-1 (Q07820 whole entry, species assumed): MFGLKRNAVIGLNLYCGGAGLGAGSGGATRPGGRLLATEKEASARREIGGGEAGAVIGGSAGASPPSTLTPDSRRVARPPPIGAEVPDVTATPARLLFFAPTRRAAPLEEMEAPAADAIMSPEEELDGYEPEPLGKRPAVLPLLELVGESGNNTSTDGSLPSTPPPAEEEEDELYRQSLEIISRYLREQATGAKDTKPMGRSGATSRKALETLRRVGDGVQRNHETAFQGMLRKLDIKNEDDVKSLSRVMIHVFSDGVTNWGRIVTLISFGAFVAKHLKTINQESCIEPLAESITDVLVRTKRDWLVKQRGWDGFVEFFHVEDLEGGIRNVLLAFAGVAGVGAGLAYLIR

| SMILES | subG1 cells [1] | affinity for Mcl-1 [2] | affinity for A1 [3] | endogenous Mcl-1 level [4] |
| --- | --- | --- | --- | --- |
| CN(C)CC[C@H](CSc1ccccc1)Nc1ccc(S(=O)(=O)NC(=O)c2ccc(N3CCN(Cc4ccccc4-c4ccc(Cl)cc4)CC3)cc2)cc1[N+](=O)[O-] [ABT-737] | 35%±6.6% | low affinity | low affinity | – |
| C[C@@H]1C[C@@H]([C@H](O)CC2CC(=O)NC(=O)C2)C(=O)[C@@H](C)C1 [cycloheximide] | – | – | – | significant decrease |
